Experimental data as given in patent publication US7897582B2, “Oligonucleotide compositions and methods for the modulation of the expression of B7 protein” (Isis Pharmaceuticals, Inc., priority 2003, dated 2011).
Strand notation (5' to 3'): a small letter for the sugar, then the base; units joined by * are phosphorothioate-linked, units joined directly phosphodiester-linked; [ ] holds rarer units or linkages, { } end groups; capitals alone tell only the bases. e = 2'-O-(2-methoxyethyl) (MOE); [5mC] = 5-methylcytosine; d = 2'-deoxy (DNA)

How the values were obtained:
[1] = tested on: DBA/1LacJ mice with collagen-induced arthritis; test: Collagen-induced arthritis (CIA) murine model; assay type: in vivo, mouse; conditions: CIA in DBA/1LacJ mice
Method: Collagen-induced arthritis (CIA) was used as a murine model for arthritis (Mussener, A., et al., Clin. Exp. Immunol., 1997, 107, 485-493). Female DBA/1LacJ mice (Jackson Laboratories, Bar Harbor, Me.) between the ages of 6 and 8 weeks were used to assess the activity of B7-1 antisense oligonucleotides.
On day 0, the mice were immunized at the base of the tail with 100 μg of bovine type II collagen which is emulsified in Complete Freund's Adjuvant (CFA). On day 7, a second booster dose of collagen was administered by the same route. On day 14, the mice were injected subcutaneously with 100 μg of LPS. Oligonucleotide was administered intraperitoneally daily (10 mg/kg bolus) starting on day −3 (three days before day 0) and continuing for the duration of the study. Oligonucleotide 17456 (SEQ ID NO. 173) is a fully phosphorothioated analog of 18122.
Weights were recorded weekly. Mice were inspected daily for the onset of CIA. Paw widths are rear ankle widths of affected and unaffected joints were measured three times a week using a constant tension caliper. Limbs were clinically evaluated and graded on a scale from 0-4 (with 4 being the highest).

[2] = tested on: Mouse B7-2 mRNA; test: Mouse B7-2 mRNA expression, screened as in Example 4; assay type: cell-based; design: % mRNA INHIBITION: concentration or dose not given beside the values; conditions: for % mRNA INHIBITION: screened as in Example 4; for % mRNA EXPRESSION: screened as in Example 4, basal = 100.0%
Method: For ribonuclease protection assays, cells were harvested 18 hours after completion of oligonucleotide treatment using a Totally RNA™ kit (Ambion, Austin, Tex.). The probes for the assay were generated from plasmids pcB7-2 (linearized by digestion with Bgl II) and pTRI-b-actin (Ambion Inc., Austin, Tex.). In vitro transcription of the linearized plasmid from the SP6 promoter was performed in the presence of α-^32P-UTP (800 Ci/mmole) yielding an antisense RNA complementary to the 3′ end of B7-2 (position 1044-1391). The probe was gel-purified after treatment with DNase I to remove DNA template. Ribonuclease protection assays were carried out using an RPA II™ kit (Ambion) according to the manufacturer's directions. Total RNA (5 μg) was hybridized overnight, at 42° C., with 10^5 cpm of the B7-2 probe or a control beta-actin probe. The hybridization reaction was then treated, at 37° C. for 30 minutes, with 0.4 units of RNase A and 2 units of RNase T1. Protected RNA was precipitated, resuspended in 10 μL of gel loading buffer and electrophoresed on a 6% acrylamide gel with 50% w/v urea at 20 W. The gel was then exposed and the lanes quantitated using a PhosphorImager (Molecular Dynamics, Sunnyvale, Calif.) essentially according to the manufacturer's instructions.
Oligonucleotides were screened as described in Example 4.

[3] = tested on: Mouse B7-1 mRNA; test: Mouse B7-1 mRNA expression, screened as in Example 4; assay type: cell-based; design: % mRNA INHIBITION: concentration or dose not given beside the values; conditions: Table 10
[4] = tested on: BALB/c mice with heart allograft; test: Murine heart allograft rejection model; assay type: in vivo, mouse
Method: A murine model for evaluating compounds for their ability to inhibit heart allograft rejection has been previously described (Stepkowski et al., J. Immunol., 1994, 153, 5336). This model was used to evaluate the immunosuppressive capacity of antisense oligonucleotides to B7 proteins alone or in combination with antisense oligonucleotides to intercellular adhesion molecule-1 (ICAM-1).
Heart allograft rejection studies and oligonucleotide treatments of BALB/c mice were performed essentially as previously described (Stepkowski et al., J. Immunol., 1994, 153, 5336). Antisense oligonucleotides used included ISIS 11696, ISIS 3082 (targeted to ICAM-1) and ISIS 1082 (a control oligonucleotide targeted to the herpes virus UL-13 gene sequence). Dosages used were 1, 2, 2.5, 5 or 10 mg/kg of individual oligonucleotide (as indicated below); when combinations of oligonucleotides were administered, each oligonucleotide was given at a dosage of 1, 5 or 10 mg/kg (total oligonucleotide dosages of 2, 10 and 20 mg/kg, respectively). The survival times of the transplanted hearts and their hosts were monitored and recorded.

Substance | % mRNA EXPRESSION [3] | % mRNA INHIBITION [3] | other results
11696 (antisense dG*dG*dA*dT*dT*dG*dC*dC*dA*dA*dG*dC*dC*dC*dA*dT*dG*dG*dT*dG) [compound 11696] |  |  | % Incidence ([1]; 10 mg/kg intraperitoneally daily from day -3, control 70%): 37.5%; Peak day (day from onset of maximum swelling for each joint measure) ([1]; 10 mg/kg intraperitoneally daily, control 6.7 ± 2.9): 11.6 ± 4.5 days; Severity (total clinical score divided by the total number of mice in the group) ([1]; 10 mg/kg intraperitoneally daily, limbs graded 0-4, control 3.2 ± 1.1): 3.4 ± 1.8
18099 (antisense eG*e[5mC]*eA*eA*eT*dT*dT*dG*dG*dG*dG*dT*dT*d[5mC]*dA*eA*eG*eT*eT*e[5mC]) [compound 18099] |  |  | % mRNA INHIBITION [2]: 33.2%; % mRNA EXPRESSION [2]: 66.8%
18100 (antisense e[5mC]*eA*eA*eT*e[5mC]*dA*dG*d[5mC]*dT*dG*dA*dG*dA*dA*d[5mC]*eA*eT*eT*eT*eT) [compound 18100] |  |  | % mRNA INHIBITION [2]: 32.8%; % mRNA EXPRESSION [2]: 67.2%
18101 (antisense eT*eT*eT*eT*eG*dT*dA*dT*dA*dA*dA*dA*d[5mC]*dA*dA*eT*e[5mC]*eA*eT*eA) [compound 18101] |  |  | % mRNA INHIBITION [2]: 11.1%; % mRNA EXPRESSION [2]: 88.9%
18102 (antisense e[5mC]*e[5mC]*eT*eT*e[5mC]*dA*d[5mC]*dT*d[5mC]*dT*dG*d[5mC]*dA*dT*dT*eT*eG*eG*eT*eT) [compound 18102] |  |  | % mRNA INHIBITION [2]: 66.2%; % mRNA EXPRESSION [2]: 33.8%
18103 (antisense eT*eG*e[5mC]*eA*eT*dG*dT*dT*dA*dT*d[5mC]*dA*d[5mC]*d[5mC]*dA*eT*eA*e[5mC]*eT*e[5mC]) [compound 18103] |  |  | % mRNA INHIBITION [2]: 69.8%; % mRNA EXPRESSION [2]: 30.2%
18104 (antisense eA*eG*eA*eG*eA*dA*dA*d[5mC]*dT*dA*dG*dT*dA*dA*dG*eA*eG*eT*e[5mC]*eT) [compound 18104] | 60.0% | 40.0% | 
18105 (antisense eT*eG*eG*e[5mC]*eA*dT*d[5mC]*d[5mC]*dA*d[5mC]*d[5mC]*d[5mC]*dG*dG*d[5mC]*eA*eG*eA*eT*eG) [compound 18105] | 32.0% | 68.0% | 
18106 (antisense TCGAGAAACAGAGATGTAGA; listed as DNA, chemistry not fully specified) [compound 18106] | 51.0% | 49.0% | 
18107 (antisense eT*eG*eG*eA*eG*d[5mC]*dT*dT*dA*dG*dG*d[5mC]*dA*d[5mC]*d[5mC]*eT*e[5mC]*e[5mC]*eT*eA) [compound 18107] | 58.0% | 42.0% | 
18108 (antisense eT*eG*eG*eG*eG*dA*dA*dA*dG*d[5mC]*d[5mC]*dA*dG*dG*dA*eA*eT*e[5mC]*eT*eA) [compound 18108] | 82.0% | 18.0% | 
18109 (antisense e[5mC]*eA*eG*e[5mC]*eA*d[5mC]*dA*dA*dA*dG*dA*dG*dA*dA*dG*eA*eA*eT*eG*eA) [compound 18109] | 45.5% | 54.5% | 
18111 (antisense eA*eA*eG*eT*e[5mC]*d[5mC]*dG*dG*dT*dT*d[5mC]*dT*dT*dA*dT*eA*e[5mC]*eT*e[5mC]*eG) [compound 18111] | 38.0% | 62.0% | 
18112 (antisense eG*e[5mC]*eA*eG*eG*dT*dA*dA*dT*d[5mC]*d[5mC]*dT*dT*dT*dT*eA*eG*eT*eG*eT) [compound 18112] | 42.0% | 58.0% | 
18114 (antisense e[5mC]*eG*eA*eA*eT*d[5mC]*d[5mC]*dT*dG*d[5mC]*d[5mC]*d[5mC]*d[5mC]*dA*dA*eA*eG*eA*eG*e[5mC]) [compound 18114] | 25.6% | 74.4% | 
18115 (antisense eA*e[5mC]*eT*eG*e[5mC]*dG*d[5mC]*d[5mC]*dG*dA*dA*dT*d[5mC]*d[5mC]*dT*eG*e[5mC]*e[5mC]*e[5mC]*e[5mC]) [compound 18115] | 33.5% | 66.5% | 
18116 (antisense eT*eT*eG*eA*eT*dG*dA*dT*dG*dA*d[5mC]*dA*dA*d[5mC]*dG*eA*eT*eG*eA*e[5mC]) [compound 18116] | 65.6% | 34.4% | 
18117 (antisense e[5mC]*eT*eG*eT*eT*dG*dT*dT*dT*dG*dT*dT*dT*d[5mC]*dT*e[5mC]*eT*eG*e[5mC]*eT) [compound 18117] | 46.7% | 53.3% | 
18118 (antisense eT*eG*eT*eT*e[5mC]*dA*dG*d[5mC]*dT*dA*dA*dT*dG*d[5mC]*dT*eT*e[5mC]*eT*eT*e[5mC]) [compound 18118] | 31.7% | 68.3% | 
18120 (antisense eT*e[5mC]*e[5mC]*eA*e[5mC]*dT*dT*d[5mC]*dA*dG*dT*d[5mC]*dA*dT*d[5mC]*eA*eA*eG*e[5mC]*eA) [compound 18120] | 26.7% | 73.3% | 
18121 (antisense eT*eG*e[5mC]*eT*e[5mC]*dA*dA*dT*dA*d[5mC]*dT*d[5mC]*dT*d[5mC]*dT*eT*eT*eT*eT*eA) [compound 18121] | 114.0% |  | 
18122 (antisense eA*eG*eG*e[5mC]*e[5mC]*d[5mC]*dA*dG*d[5mC]*dA*dA*dA*d[5mC]*dT*dT*eG*e[5mC]*e[5mC]*e[5mC]*eG) [compound 18122] | 42.0% | 58.0% | 
18123 (antisense eA*eA*e[5mC]*eG*eG*d[5mC]*dA*dA*dG*dG*d[5mC]*dA*dG*d[5mC]*dA*eA*eT*eA*e[5mC]*e[5mC]) [compound 18123] | 42.0% | 58.0% | 
ISIS 1082: control oligonucleotide targeted to the herpes virus UL-13 gene sequence; SEQ ID NO: 102 (125) (antisense GCCGAGGTCCATGTCGTACGC; listed as DNA, chemistry not given here) |  |  | mean survival time ([4]; 5 mg/kg/day for 7 days): 7.1 ± 0.7 days; mean survival time ([4]; 10 mg/kg/day for 7 days): 7.0 ± 0.8 days
ISIS 3082: ICAM-1 oligonucleotide, previously described (Stepkowski et al.); SEQ ID NO: 101 (antisense TGCATCCCCCAGGCCACCAT; listed as DNA, chemistry not given here) |  |  | mean survival time ([4]; 1 mg/kg/day for 7 days): 11.0 ± 0.0 days; mean survival time ([4]; 2.5 mg/kg/day for 7 days): 12.0 ± 2.7 days; mean survival time ([4]; 5 mg/kg/day for 7 days): 14.1 ± 2.7 days; mean survival time ([4]; 10 mg/kg/day for 7 days): 15.3 ± 5.8 days
